What was measured:
clams = conditions: sulfuric acid and low pH, previously found; cited from earlier work
bryozoa = assay: Open-water pond treatment, mortality of bryozoa; format: in vivo
Protocol: (§1) Applicant have performed studies and determined that the present water treatment methods with sulfurous acid provide about 100% kill of bryozoa in 48 hours, 100% kill of zebra mussels in 5 days, and 100% kill of Asiatic clams in less than one month. In these studies, the protocols introduced sulfurous acid into open water to achieve water pH levels between 6.0 and 6.5 in the treatment water within a control distance from the location of introduction. Accordingly, these pH ranges are sufficient to control these aquatic species. This allows these relatively higher pH ranges to control the aquatic species without compromising the body of water. The cyanobacteria can have a 100% kill from the sulfurous acid with a pH of the treated water between 6-7, or more preferably between 6.8-7.
(§2) In view of the disclosure provided herein, it is now possible to achieve about 100% kill rates on these aquatic pest species in any size body of water at ambient temperature and pressure. The water treatment is performed through the addition of sufficient sulfurous acid (as well as any sulfites and bisulfites in the sulfurous acid) so as to reduce pH between about 6.0-about 6.5 over hours to days to weeks. […] The mortality of each aquatic pest was measured progressively over time until all the aquatic pests in the pond were determined to be dead or at a level so low as to be unmeasurable.

cyanobacteria = assay: Treatment of Daybreak reservoirs infested with cyanobacteria; format: in vivo
Text: (§3) As a control, Jordan Canal water, which was infected with cyanobacteria from Utah Lake, is directed to Daybreak and other areas. While treatment controlled cyanobacteria in Daybreak reservoirs, other areas that receive water from the Jordan Canal were still testing positive for cyanobacteria. As such, the treatment of sulfurous acid controlled the cyanobacteria in view of water ways further away (e.g., Blackridge Reservoir, Jordan River Narrows, and Wheeler Farm East Canal) still containing cyanobacteria. […] Since cyanobacteria are harmful to fish, the sulfurous acid actually improves the health of fish in the treated water.

Asiatic clams = assay: Open-water pond treatment, mortality of Asiatic clams; format: in vivo
Protocol: as §1, §2

aquatic pests = assay: Water treatment, control of aquatic pests in general; format: in vivo
Text: Thus, sulfurous acid can be used to treat water to control existing aquatic pest as well as condition the water to inhibit spreading of any aquatic pests introduced therein. This can inhibit spreading from a first body of water to a second body of water, such as from a pond to a stream or from a stream into a pond. While providing the sulfurous acid prohibits or prevents aquatic pest infestations or can be used as a prophylactic against aquatic pest infestations, application to the water can be done for the desire to control any aquatic pest in the water or soil in contact with the water (e.g., river bed, pond bed, shore, or other soil in direct contact with the water), or that may come into contact therewith. Also, the sulfurous acid can treat the surfaces of any water system or any surface of any object in the water to inhibit aquatic pest from attaching thereto, remove the aquatic pests from the surface (e.g., descale) or otherwise inhibit the aquatic pest from contaminating the water system. Thus, it may be desirable to apply the sulfurous acid to a water or soil contacting the water or structure confining the water as desired.
Thus, exhaust products from burning sulfur and reaction products of the exhaust products (e.g., reaction products from reacting sulfur dioxide with water or reacting other sulfur-containing substance in the exhaust with water) and water can be used to control the aquatic pets. In one aspect, sulfuric acid is specifically not used in the methods described herein.
Thus, introducing the exhaust products from burning sulfur that has sulfur dioxide (e.g., exhaust directly from a sulfur burn chamber) and reaction products of the exhaust products and water may reduce the calcium in the water in order to control the pests. This may include reducing the overall free calcium level, such as reducing carbonate and bicarbonate levels. In one aspect, the ability of sulfurous acid to degrade carbonates and bicarbonates may contribute to the ability of the present technology controlling pests. […] As referred to herein, the exhaust products include sulfur dioxide and possibly other sulfur-containing substances that are obtained directly from a sulfur burner that burns elemental sulfur.
Treatment can provide clarified water from murky water having one or more of these aquatic pests.

fish or other animals = format: in vivo; conditions: Daybreak reservoirs, pH maintained between 6.8-7
Text: as §3

anatoxin-a = assay: Cyanotoxin in treated Daybreak reservoirs; set-up: species or system cyanobacteria; conditions: Daybreak reservoirs (surge pond), pH maintained between 6.8-7
Text: as §3

zebra mussels = assay: Open-water pond treatment, mortality of zebra mussels; format: in vivo
Protocol: as §1, §2

algae = assay: Removal of algae from treated water; format: in vivo; conditions: pH 6.5
Text: In one example, pH 6.5 removed algae in 15 days.

[1] = inoculated aquatic pond, pH about 6.0-about 6.5, no time stated

Compound | kill of clams (clams) | kill of bryozoa (bryozoa; in 48 hours, open water, pH between 6.0 and 6.5) | kill of bryozoan (bryozoa; [1]) | time until free of cyanobacteria (cyanobacteria; Daybreak reservoirs (surge pond), pH maintained between 6.8-7) [weeks] | detection of cyanobacteria after treatment (cyanobacteria; Daybreak reservoirs, untreated Jordan Canal areas still positive) | cyanobacteria in waterways downstream from the Daybreak reservoirs (cyanobacteria; downstream of treated reservoirs) | kill of cyanobacteria (cyanobacteria; pH of the treated water between 6-7, more preferably 6.8-7) [%] | kill of Asiatic clams (Asiatic clams; in less than one month, open water, pH between 6.0 and 6.5) [%] | kill of Asiatic clams (Asiatic clams; [1]) | effect on algae, bacteria, zebra mussel, Asian clam, apple snail, American crab, crayfish, Bryozoans (aquatic pests; in vivo) | kill rates in the aquatic pests (aquatic pests; open and contained water) [%] | effectiveness in controlling aquatic pests versus sulfuric acid (aquatic pests; pH reduced to 7.1 with sulfurous acid versus pH 3.0 with sulfuric acid) | aquatic pest count (aquatic pests; preliminary testing, applied to water having aquatic pest) | kill of non-target fish or other animals (fish or other animals) | time until free of anatoxin-a (anatoxin-a) [weeks] | kill of zebra mussels (zebra mussels; in 5 days, open water, pH between 6.0 and 6.5) [%] | kill of zebra mussels (zebra mussels; [1]) | time to removal of algae (algae) [days]
O=S(=O)(O)O [sulfuric acid] | kill the clams, but only in some cases | – | – | – | – | – | – | – | – | – | – | – | – | – | – | – | – | –
sulfurous acid | – | about 100% | about 100% | ≤ 2 | non-detect | free of cyanobacteria | 100 | 100 | about 100% | reduce | 100 | more effective | reduces the aquatic pest count | no fish or other animals were determined to be killed | ≤ 2 | 100 | about 100% | 15
